Results taken from patent US9650379B2 (CHONG KUN DANG PHARMACEUTICAL CORP., priority 2013, dated 2017).

Columns and labels:
[1] = biological target: T1, HDAC6 human recombinant (Homo sapiens, UniProt Q9UBN7); assay: Inhibition of HDAC6 activity (fluorimetric assay); format: biochemical; conditions: test concentrations 0.1, 1, 10, 100 and 1000 nM; 37° C., 60 minutes
T1 construct: purchased Calbiochem 382180
T1 sequence (Q9UBN7 1-1215): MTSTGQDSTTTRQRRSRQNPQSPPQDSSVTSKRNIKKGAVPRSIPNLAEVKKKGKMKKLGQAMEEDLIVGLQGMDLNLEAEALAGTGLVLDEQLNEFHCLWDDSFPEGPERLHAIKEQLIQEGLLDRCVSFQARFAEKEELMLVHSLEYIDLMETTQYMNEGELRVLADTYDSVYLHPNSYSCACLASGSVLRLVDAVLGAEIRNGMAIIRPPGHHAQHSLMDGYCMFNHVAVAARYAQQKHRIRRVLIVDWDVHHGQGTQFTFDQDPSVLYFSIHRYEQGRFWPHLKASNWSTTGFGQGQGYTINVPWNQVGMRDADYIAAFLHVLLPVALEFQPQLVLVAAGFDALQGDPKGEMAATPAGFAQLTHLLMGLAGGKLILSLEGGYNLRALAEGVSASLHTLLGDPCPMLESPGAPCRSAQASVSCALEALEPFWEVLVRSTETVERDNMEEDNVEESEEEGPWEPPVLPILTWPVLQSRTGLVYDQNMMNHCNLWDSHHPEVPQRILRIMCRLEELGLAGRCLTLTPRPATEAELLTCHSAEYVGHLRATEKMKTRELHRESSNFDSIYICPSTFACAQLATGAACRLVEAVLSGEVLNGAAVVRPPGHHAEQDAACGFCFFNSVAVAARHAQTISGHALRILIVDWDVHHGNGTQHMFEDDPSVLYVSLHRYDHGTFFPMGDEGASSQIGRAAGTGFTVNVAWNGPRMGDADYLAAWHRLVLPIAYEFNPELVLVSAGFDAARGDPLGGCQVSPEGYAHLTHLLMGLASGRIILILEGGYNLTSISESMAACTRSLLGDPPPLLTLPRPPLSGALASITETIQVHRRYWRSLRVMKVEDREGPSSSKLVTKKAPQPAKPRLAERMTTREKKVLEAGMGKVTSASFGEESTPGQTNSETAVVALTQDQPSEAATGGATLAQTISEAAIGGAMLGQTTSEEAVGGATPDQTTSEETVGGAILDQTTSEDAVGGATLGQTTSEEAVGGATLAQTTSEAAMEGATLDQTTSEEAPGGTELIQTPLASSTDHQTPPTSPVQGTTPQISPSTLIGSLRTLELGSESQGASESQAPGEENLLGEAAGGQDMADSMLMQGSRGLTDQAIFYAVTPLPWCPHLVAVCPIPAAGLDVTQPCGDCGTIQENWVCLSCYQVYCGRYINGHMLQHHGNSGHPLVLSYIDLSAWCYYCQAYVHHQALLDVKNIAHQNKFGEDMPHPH
In short: (§1)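 HDAC1 tested with the kit assay mixture at 100, 1000 and 10000 nM compound; recombinant human HDAC6 at 0.1, 1, 10, 100 and 1000 nM. Reaction ran 60 min at 37° C, then developer was added for 30 min at 37° C and fluorescence quantified.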

[2] = biological target: T2, HDAC1 (Homo sapiens, UniProt Q13547); assay: Inhibition of HDAC1 activity (HDAC1 fluorimetric drug discovery assay kit); format: biochemical; conditions: test concentrations 100, 1000 and 10000 nM; 37° C., 60 minutes
T2 construct: purchased Enzolifesciences BML-AK511
In short: as §1

T2 sequence (Q13547 whole entry): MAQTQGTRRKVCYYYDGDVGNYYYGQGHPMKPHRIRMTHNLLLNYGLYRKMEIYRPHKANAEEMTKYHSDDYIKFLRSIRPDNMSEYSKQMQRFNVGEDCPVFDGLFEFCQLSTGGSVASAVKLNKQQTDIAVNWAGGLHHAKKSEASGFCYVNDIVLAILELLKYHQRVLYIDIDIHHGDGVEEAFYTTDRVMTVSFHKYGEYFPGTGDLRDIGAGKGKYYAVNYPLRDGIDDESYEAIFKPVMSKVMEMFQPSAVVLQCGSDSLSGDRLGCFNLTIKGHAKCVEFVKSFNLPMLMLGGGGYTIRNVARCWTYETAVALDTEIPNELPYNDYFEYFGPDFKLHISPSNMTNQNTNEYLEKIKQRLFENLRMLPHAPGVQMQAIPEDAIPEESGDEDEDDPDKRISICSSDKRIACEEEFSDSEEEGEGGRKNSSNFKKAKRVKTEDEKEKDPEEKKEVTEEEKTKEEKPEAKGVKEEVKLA

| SMILES | IC50 [1] [nM] | IC50 [2] [nM] |
| --- | --- | --- |
| O=C(NO)c1ccc(Cn2ccc3c(N4CCN(Cc5ccccc5F)CC4)ccnc32)cc1 [Compound 847, 4-((4-(4-(2-fluorobenzyl)piperazin-1-yl)-1H-pyrrolo[2,3-b]pyridin-1-yl)methyl)-N-hydroxybenzamide] | 5.6 | 600 |
| O=C(NO)c1ccc(Cn2ccc3c(N4CCN(Cc5cccc(F)c5)CC4)ccnc32)cc1 [Compound 848, 4-((4-(4-(3-fluorobenzyl)piperazin-1-yl)-1H-pyrrolo[2,3-b]pyridin-1-yl)methyl)-N-hydroxybenzamide] | 9.1 | 850 |
| O=C(NO)c1ccc(Cn2ccc3c(N4CCN(Cc5cccnc5)CC4)ccnc32)cc1 [Compound 849, N-hydroxy-4-((4-(4-(pyridin-3-ylmethyl)piperazin-1-yl)-1H-pyrrolo[2,3-b]pyridin-1-yl)methyl)benzamide] | 11.7 | 290 |
| O=C(NO)c1ccc(Cn2ccc3c(N4CCN(Cc5ccncc5)CC4)ccnc32)cc1 [Compound 850, N-hydroxy-4-((4-(4-(pyridin-4-ylmethyl)piperazin-1-yl)-1H-pyrrolo[2,3-b]pyridin-1-yl)methyl)benzamide] | 4.4 | 220 |
| CC(C)(F)C(=O)N1CCC(c2cnc3c(ccn3Cc3ccc(C(=O)NO)cc3)c2)CC1 [Compound 854, 4-((5-(1-(2-fluoro-2-methylpropanoyl)piperidin-4-yl)-1H-pyrrolo[2,3-b]pyridin-1-yl)methyl)-N-hydroxybenzamide] | 5 | 350 |
| CC(C)(F)C(=O)N1CCN(c2ccnc3c2ccn3Cc2ccc(C(=O)NO)cc2)CC1 [Compound 856, 4-((4-(4-(2-fluoro-2-methylpropanoyl)piperazin-1-yl)-1H-pyrrolo[2,3-b]pyridin-1-yl)methyl)-N-hydroxybenzamide] | 2.3 | 80 |
| C[C@@H]1CN(c2cnc3c(ccn3Cc3ccc(C(=O)NO)cc3)c2)C[C@H](C)N1Cc1cccc(F)c1 [Compound 857, 4-((5-((3S,5R)-4-(3-fluorobenzyl)-3,5-dimethylpiperazin-1-yl)-1H-pyrrolo[2,3-b]pyridin-1-yl)methyl)-N-hydroxybenzamide] | 24.8 | 2140 |
| CC(C)(F)C(=O)N1CCC(c2ccnc3c2ccn3Cc2ccc(C(=O)NO)cc2)CC1 [Compound 858, 4-((4-(1-(2-fluoro-2-methylpropanoyl)piperidin-4-yl)-1H-pyrrolo[2,3-b]pyridin-1-yl)methyl)-N-hydroxybenzamide] | 3.6 | 60 |
| COc1cccc(CN2CCC(c3ccnc4c3ccn4Cc3ccc(C(=O)NO)cc3)CC2)c1 [Compound 859, N-hydroxy-4-((4-(1-(3-methoxybenzyl)piperidin-4-yl)-1H-pyrrolo[2,3-b]pyridin-1-yl)methyl)benzamide] | 6 | 330 |
| O=C(NO)c1ccc(Cn2ccc3c(C4CCN(C(=O)c5cccc(F)c5)CC4)ccnc32)cc1 [Compound 860, 4-((4-(1-(3-fluorobenzoyl)piperidin-4-yl)-1H-pyrrolo[2,3-b]pyridin-1-yl)methyl)-N-hydroxybenzamide] | 2.5 | 120 |
| CC(C)CN1CCC(c2cnc3c(ccn3Cc3ccc(C(=O)NO)cc3)c2)CC1 [Compound 863, N-hydroxy-4-((5-(1-isobutylpiperidin-4-yl)-1H-pyrrolo[2,3-b]pyridin-1-yl)methyl)benzamide] | 11.5 | 1120 |
| CN1CCC(c2cnc3c(ccn3Cc3ccc(C(=O)NO)cc3)c2)CC1 [Compound 867, N-hydroxy-4-((5-(1-methylpiperidin-4-yl)-1H-pyrrolo[2,3-b]pyridin-1-yl)methyl)benzamide] | 7.8 | 620 |
| CC(C)(C)CN1CCC(c2ccnc3c2ccn3Cc2ccc(C(=O)NO)cc2)CC1 [Compound 868, N-hydroxy-4-((4-(1-neopentylpiperidin-4-yl)-1H-pyrrolo[2,3-b]pyridin-1-yl)methyl)benzamide] | 15.6 | 930 |
| O=C(NO)c1ccc(Cn2ccc3c(C4CCN(Cc5ccccc5F)CC4)ccnc32)cc1 [Compound 869, 4-((4-(1-(2-fluorobenzyl)piperidin-4-yl)-1H-pyrrolo[2,3-b]pyridin-1-yl)methyl)-N-hydroxybenzamide] | 26.3 | 350 |
| O=C(NO)c1ccc(Cn2ccc3c(C4CCN(Cc5cccc(F)c5)CC4)ccnc32)cc1 [Compound 870, 4-((4-(1-(3-fluorobenzyl)piperidin-4-yl)-1H-pyrrolo[2,3-b]pyridin-1-yl)methyl)-N-hydroxybenzamide] | 20.6 | 330 |
| O=C(NO)c1ccc(Cn2ccc3cc(C4CCN(Cc5cccc(C(F)(F)F)c5)CC4)cnc32)cc1 [Compound 871, N-hydroxy-4-((5-(1-(3-(trifluoromethyl)benzyl)piperidin-4-yl)-1H-pyrrolo[2,3-b]pyridin-1-yl)methyl)benzamide] | 92.7 | 3240 |

The remaining lines, values ahead:

| IC50 [1] [nM] | IC50 [2] [nM] | SMILES |
| --- | --- | --- |
| 12.7 | 1930 | O=C(NO)c1ccc(Cn2ccc3cc(N4CCN(Cc5cccc(F)c5)CC4)cnc32)cc1 [Compound 851, 4-((5-(4-(3-fluorobenzyl)piperazin-1-yl)-1H-pyrrolo[2,3-b]pyridin-1-yl)methyl)-N-hydroxybenzamide] |
| 11.5 | 2210 | O=C(NO)c1ccc(Cn2ccc3cc(N4CCN(Cc5ccc(F)cc5)CC4)cnc32)cc1 [Compound 852, 4-((5-(4-(4-fluorobenzyl)piperazin-1-yl)-1H-pyrrolo[2,3-b]pyridin-1-yl)methyl)-N-hydroxybenzamide] |
| 24 | 3510 | CC(C)CN1CCN(c2cnc3c(ccn3Cc3ccc(C(=O)NO)cc3)c2)CC1 [Compound 853, N-hydroxy-4-((5-(4-isobutylpiperazin-1-yl)-1H-pyrrolo[2,3-b]pyridin-1-yl)methyl)benzamide] |
| 3.5 | 250 | CC(C)(F)C(=O)N1CCN(c2cnc3c(ccn3Cc3ccc(C(=O)NO)cc3)c2)CC1 [Compound 855, 4-((5-(4-(2-fluoro-2-methylpropanoyl)piperazin-1-yl)-1H-pyrrolo[2,3-b]pyridin-1-yl)methyl)-N-hydroxybenzamide] |
| 11.2 | 1880 | O=C(NO)c1ccc(Cn2ccc3cc(N4CCN(Cc5ccccc5F)CC4)cnc32)cc1 [Compound 861, 4-((5-(4-(2-fluorobenzyl)piperazin-1-yl)-1H-pyrrolo[2,3-b]pyridin-1-yl)methyl)-N-hydroxybenzamide] |
| 12.1 | 1430 | CC(C)(C)CCN1CCN(c2cnc3c(ccn3Cc3ccc(C(=O)NO)cc3)c2)CC1 [Compound 862, 4-((5-(4-(3,3-dimethylbutyl)piperazin-1-yl)-1H-pyrrolo[2,3-b]pyridin-1-yl)methyl)-N-hydroxybenzamide] |
| 18 | 1740 | CC(C)(C)CCN1CCC(c2cnc3c(ccn3Cc3ccc(C(=O)NO)cc3)c2)CC1 [Compound 864, 4-((5-(1-(3,3-dimethylbutyl)piperidin-4-yl)-1H-pyrrolo[2,3-b]pyridin-1-yl)methyl)-N-hydroxybenzamide] |
| 12 | 680 | C[C@@H]1CN(c2cnc3c(ccn3Cc3ccc(C(=O)NO)cc3)c2)C[C@H](C)N1CC(C)(C)O [Compound 865, N-hydroxy-4-((5-((3S,5R)-4-(2-hydroxy-2-methylpropyl)-3,5-dimethylpiperazin-1-yl)-1H-pyrrolo[2,3-b]pyridin-1-yl)methyl)benzamide] |
| 12 | 1630 | C[C@@H]1CN(c2cnc3c(ccn3Cc3ccc(C(=O)NO)cc3)c2)C[C@H](C)N1CC(C)(C)F [Compound 866, 4-((5-((3S,5R)-4-(2-fluoro-2-methylpropyl)-3,5-dimethylpiperazin-1-yl)-1H-pyrrolo[2,3-b]pyridin-1-yl)methyl)-N-hydroxybenzamide] |
